Data from patent US7259145B2, “Mechanically activated channel blocker” (The Research Foundation of State University of New York, priority 2004, dated 2007).
“Also recorded” adds a separate entry of the source. Non-standard residues stand in square brackets, D forms with d. No end group written: not given here.

How the values were obtained:
[1] = test system: cationic SACs; assay: Inhibition and gating of cationic SACs in vertebrate cell types (affinity, apparent rates); format: cell-based
Description: GsMTx4 inhibits ubiquitous cationic SACs in a variety of vertebrate cell types (200-600 nM, for example, chick heart, rat astrocytes and skeletal muscle, and human smooth muscle) (Gottlieb et al., Current Drug Targets—CNS & Neurological Disorders 3:287-295, 2004) despite the fact that they have different kinetic properties and presumably different structure. […] While not intending to be bound by any particular theory, it is believed, based on predictions using the Poisson-Boltzmann models, that this effect is seen when GsMTx4 is located within about 1.5 nm of the channel vestibule.
To determine if GsMTx4 functions by altering bilayer properties, using the tryptophan fluorescence (Ladokhin et al., supra) of GsMTx4, we measured its binding to large unilamellar lipid vesicles. The partition coefficient, defined as ([GsMTx4]bil/[Lipid])/([GsMTx4]aq/[H2O]) (where the subscripts denote the bilayer and aqueous phases, respectively, for example see White et al., Methods Enzymol. 295, 62-87, 1998), was ˜3×10^5 corresponding to an adsorption coefficient of 10 ^−3 cm (defined as ^2bil/[GsMTx4 ]aq, where ^2bil denotes the surface density, in moles per unit area). […] This has two implications. First, the intrinsic affinity between a lipid-bound GsMTx4 and the channel could be quite modest and yet account for the observed KD (Kim et al., Biophys. J. 60, 135148, 1991). Second, the mean surface density of GsMTx4 is sufficiently high that fast exchange (50 ms) between the bulk bilayer and the lipids adjacent to the channel can alter the local (and global) bilayer mechanical properties. The apparent association and dissociation rates for SAC effects (Ka≈10^6 M^−1 s^−1, KD≈0.2 s^−1) are consistent with such a fast exchange (as well as slower, more specific binding).

[2] = Binding to large unilamellar lipid vesicles by tryptophan fluorescence; format: physicochemical
Description: Fluorescence measurements were performed as described by Ladokhin et al. (Anal. Biochem. 285, 235245, 2000) with an AMJNCO-Bowman Series 2 spectrofluorimeter. The excitation and emission wavelengths were 280 nm (8 nm band pass, 08 polarizer) and 346 nm (16 nm band pass, 908 polarizer). Large unilamellar vesicles of egg lecithin (Avanti Polar Lipids) were formed by extrusion. Tryptophan (Sigma) and GsMTx4 titration experiments were performed in 8 mM phosphate buffer containing 1 mM EGTA at pH 7. Three spectra were collected at each lipid concentration with both tryptophan and GsMtx4 (both at 30μM). After background subtraction, the mean fluorescence intensity at each lipid concentration was corrected for vesicle scattering (Ladokhin et al., Anal. Biochem, 285, 235245, 2000) and normalized to the zero lipid fluorescence intensity. The results are reported assuming a vesicle diameter of 130 nm, and area per lipid in the monolayer of 0.7 nm2.
To determine if GsMTx4 functions by altering bilayer properties, using the tryptophan fluorescence (Ladokhin et al., supra) of GsMTx4, we measured its binding to large unilamellar lipid vesicles. […]

[3] = test system: stretch-activated channels (SACs); assay: SAC currents, outside-out patch of chick heart cells; format: cell-based
Description: (§1) Primary reactive rat astrocytes cultures (passages 4 to 10) were prepared as previously described. Primary cultures of chick heart cells were prepared from 11-day-old embryos as previously described (Bett et al., J. Membr. Biol. 173, 237-254, 2000).
(§2) Outside-out patches were formed using pipettes containing 140 mM KCl, 2 mM MgCl2, 10 mM HEPES and 0.5 mM EGTA (as K ? salts). SAC currents were recorded using an Axopatch 200B patch clamp, with pClamp9 software and a Digidata 1322A acquisition system (Axon Instruments). Pressure was applied to the patch pipette with an HSPC-1 pressure clamp, and the patch was perfused using an ALA MP285 perfusion system (ALA Scientific Instruments). GsMTx4 or analog was dissolved in the perfusion solution: 140 mM NaCl, 10 mM Na-HEPES, 5 mM KCl, and 1 mM MgCl2. All experiments were repeated […] times.

[4] = test system: stretch-activated channels (SACs); assay: SAC currents, outside-out patch of rat astrocytes (pressure clamp); format: cell-based; conditions: for inhibition of SACs (averaged current): 5 μM, rat astrocyte outside-out patch, FIG. 2
Description: as §1, §2

[5] = test system: cationic SACs; conditions: chick heart, rat astrocytes and skeletal muscle, human smooth muscle; cited from earlier work
[6] = test system: TRPC1; assay: Stretch activated channels in CHO cells transfected to express TRPC1; format: cell-based; conditions: CHO cells expressing TRPC1
[7] = test system: gA channels; assay: Gramicidin (gA) channel gating in lipid bilayer; format: biochemical
Description: FIG. 3 is a representation of the effect of GsMTx4 on gA channels. a, Current traces before and after addition of 200 nM GsMTx4 to both sides of a bilayer doped with chain-shortened des-Val 1-Gly 2-gA (gA2(13)) and [Ala 1]gA (AgA(15)) (numbers in parenthesis denote number of residues in the sequence): gA2 is the enantiomer of gA20. b, c, Single-channel currents (b) and lifetimes (c) as a function of GsMTx4 concentration (see Methods). d, Average lifetime (t) as a function of channel length, helix sense and identity of the aromatic at the channel/solution interface. gA2(13) and AgA(15) as above, AgA2(15) is [D-Ala 1]gA2, gT is [Tyr9,11,13,15]gA (ref. 21). 200 nM GsMTx4; columns and error bars denote mean±s.d. (n≧3).
The effect of L-GsMTx-4 on gA gating was first determined. gA channels are dimers formed by the transbilayer association of monomers in opposing monolayers (O'Connell et al., Science 250, 1256-1259, 1990). Channel formation is generally associated with local bilayer thinning, which makes gA monomer ⇄ dimer equilibrium and thus the channel lifetime and appearance rate sensitive to bilayer thickness, elastic moduli and curvature stress. Thus, if GsMTx4 binds to the lipid bilayer, one would expect it to also alter the lipid packing adjacent to the channel and thus the gA gating kinetics and, because it is cationic decrease the channel current.

[8] = 5 mM GsMTx4 [sic], chick heart outside-out patch

Substance: GsMTx4
- apparent association rate for SAC effects (Ka) [1]: ≈ 10^6 M^−1 s^−1
- apparent dissociation rate for SAC effects (KD) [1]: ≈ 0.2 s^−1
- Kd ([1]; SAC gating, read-out: effective KD for gating): 500 nM
- adsorption coefficient ([2]; corresponding to the partition coefficient): 10 ^−3 cm
- partition coefficient ([GsMTx4]bil/[Lipid])/([GsMTx4]aq/[H2O]) ([2]; large unilamellar lipid vesicles, pH 7): ~3×10^5
- reduction of average inward currents [3, 8]: 70%
- reduction of average outward currents [3, 8]: 90%
- unitary current amplitude, inward ([3]; 5 mM GsMTx4 [sic], 250 mV pipette potential as printed, control 1.74 pA): 1.58 pA
- unitary current amplitude, outward ([3]; 5 mM GsMTx4 [sic], pipette potential printed 150 mV / 50 mV, control 1.10 pA): 1.08 pA
- change in outward unitary current amplitude ([3]; in presence of GsMTx4): no change; also recorded: no observable effect
- reduction in inward unitary current amplitude ([3]; in presence of GsMTx4): 10%
- suppression of average inward current ([4]; 5 μM GsMTx4 (b40 also prints 5 mM), outside-out astrocyte patch): 80%
- open state dwell time distribution ([4]; 5 μM GsMTx4, data not shown): not affected
- inhibition of SACs (averaged current) [4]: both inhibit SACs
- membrane tension required for SAC activation ([4]; applied to extracellular face, FIGS. 1a and 1b): increasing the membrane tension required for activation
- concentration inhibiting cationic SACs [5]: 200 to 600 nM
- inhibition of stretch activated channels [6]: inhibited stretch activated channels
- gA single-channel current ([7]; FIG. 3b): reduces the single-channel current
- increase in gA channel appearance rate ([7]; GsMTx4, FIG. 3): 10-25 fold
- increase in gA open channel lifetime ([7]; GsMTx4, FIG. 3c): approximately 2 fold

Substance: D-GsMTx4: All-D-amino-acid enantiomer of GsMTx4, SEQ ID NO:1 GCLEFWWKCNPNDDKCCRPKLKCSKLFKLCNFSF-amide (G[dC][dL][dE][dF][dW][dW][dK][dC][dN][dP][dN][dD][dD][dK][dC][dC][dR][dP][dK][dL][dK][dC][dS][dK][dL][dF][dK][dL][dC][dN][dF][dS][dF]-NH2; not fully specified (bridges); printed as GCLEFWWKCNPNDDKCCRPKLKCSKLFKLCNFSF-amide; ends and bridges not checked; also: three disulfides after oxidative folding, pairing not given here)
- inhibition of SACs (averaged current) [4]: equivalent efficacy to the wild type L-form; also recorded: inhibit SACs with similar efficacy to GsMTx4; also recorded: at least as potent and may be more potent than L-GsMTx-4
- increase in gA channel appearance rates ([7]; 400 nM D-GsMTx4): 10 fold
- increase in gA channel lifetime ([7]; 400 nM D-GsMTx4): 4 fold
